The record followed here is patent publication US20100168105A1, “Spirocyclopropyl Piperidine Derivatives” (priority 2007, published 2010).

Usually IC50 stands for the concentration at which inhibition is half-maximal. A low value points to inhibition by little substance.

Test [1] concerns the target T1, human Histamine H3 receptor (hH3R) (Homo sapiens, UniProt Q9Y5N1).
T1 construct: expressed in transfected cells; host or cells: CHO cells (membranes)
The test can be described thus: Guanosine 5'-O-(3-[35S]thio)triphosphate [GTPγS] Binding Assay. The test is classed as biochemical. The conditions noted are these: antagonist activity; membranes from CHO cells expressing hH3R, (R)-α-methyl histamine 30 nM, [35S]GTPγS 0.2 nM, 90 minutes. On the procedure:
Guanosine 5′-O-(3-[^35]thio)triphosphate [GTPγS] Binding Assay
The GTPγS binding assay can be used to investigate antagonist properties of compounds in CHO cells (Chinese Hamster Ovary) transfected with human Histamine H3 receptor (hH3R). […] To determine antagonist activity, (R)-α-methyl histamine (30 nM) is added in 96 well SPA plate with [^35S]GTPγS (0.2 nM) and various concentration of H3R antagonists. The GTPγS binding assay is started with addition of the mixture membrane/saponine/GDP and incubated for 90 minutes at room temperature. The amount of bound [^35S]GTPγS is determined by using the MicroBeta Trilux counter (PerkinElmer). The percentage of [^35S]GTPγS bound in each sample is calculated as a percentage of that bound control sample incubated in absence of H3 antagonist. Duplicate determinations are obtained for each concentration, and the data are analyzed using ExcelFit4 to obtain the IC50.
For orientation: GTPγS is a poorly hydrolysed GTP analogue; its binding reports G protein activation.

Test [2] deals with human histamine H3 receptors (full-length H3, isoform 445) (Homo sapiens, UniProt Q9Y5N1). The conditions noted are these: hH3 binding IC50 (nM), inhibition of 1.4 nM [3H]-N-α-methylhistamine binding to CHO-K1 membranes expressing human H3, SPA, 1.5 hr.
Chain of human histamine H3 receptors (full-length H3, isoform 445) (Q9Y5N1 whole entry, canonical isoform): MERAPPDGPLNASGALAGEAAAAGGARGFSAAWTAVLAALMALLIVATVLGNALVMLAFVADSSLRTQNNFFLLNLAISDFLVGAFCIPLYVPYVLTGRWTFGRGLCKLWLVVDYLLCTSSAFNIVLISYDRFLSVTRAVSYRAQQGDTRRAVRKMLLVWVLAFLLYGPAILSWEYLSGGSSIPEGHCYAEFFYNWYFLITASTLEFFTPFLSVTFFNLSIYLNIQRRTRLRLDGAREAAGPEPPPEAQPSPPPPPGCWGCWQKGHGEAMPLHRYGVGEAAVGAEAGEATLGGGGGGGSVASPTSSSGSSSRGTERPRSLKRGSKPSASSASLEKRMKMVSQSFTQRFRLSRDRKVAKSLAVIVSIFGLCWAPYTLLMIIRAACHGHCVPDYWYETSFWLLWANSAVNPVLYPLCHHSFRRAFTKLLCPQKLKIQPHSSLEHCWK
Description: Histamine H3 SPA with the Agonist Radioligand [^3H]—N-α-methylhistamine
Reproducibility of the assay is such that IC50 curves can be generated in singlicate. Single poke (SP) testing was done in triplicate.
Membranes, prepared from CHO-K1 cells stably expressing the human histamine H3 receptor, were obtained from ACS.
Tested formula I compounds were provided as solubilized samples in neat DMSO. Serial dilutions were performed in DMSO.
Plates were read on a Perkin Elmer TopCount. CPM data were used to analyze unless DPM data generated by a quench curve were required.
• 1. 1 mg/ml BSA was added to assay buffer (AB) on day of assay. • 2. […] Buffer volume was split between beads and membranes to allow for polytroning of membranes prior to addition to beads. • a. […] Waited a minimum of 15 minutes prior to adding membranes (See b. below.). • b. […] The homogenized membrane mixture was combined with the beads and a minimum of 30 minutes was waited prior to dispensing to plate. • 3. Formula I compounds: For Single Poke, 2 μl 1 mM of a compound in accordance with formula I was dispensed to Optiplates (triplicate plates) for final concentration of 10 μM. […] Imetit (see below) was used as a control. • 4. […] 5 μl samples were calculated in quadruplicate on the β counter. […] (For IC50s, use final concentration on calculation tab of ABase template.)
• 1. […] 2 μl of the formula I compound dilution was mixed and then transferred into assay plates. DMSO was removed and 2 μl of 100 μM Imetit was added to the wells. • 3. 178 μl bead/membrane mixture was dispensed into the assay plate. • 4. 20 μl [^3H]-NAMH was added with Rapid Plate. The assay plate was sealed and incubated for 1.5 hr on RT shaker at speed ˜6.5. • 5. The assay plate was subsequently centrifuged at 1000 rpm for 10 minutes. • 6. The count was performed on TopCount using one of the 3H SPA H3 Quench programs.
The DPM data was analyzed when tSIS was less than that associated with 70% of full scale on the quench curve (tSIS<25%). Otherwise, CPM data was used.

T1 sequence (Q9Y5N1 whole entry): as the sequence (Q9Y5N1 whole entry, canonical isoform) above

With `O=C(C1CC12CCN(C1CCCOC1)CC2)N1CCN(C2CCC2)CC1` (centres unmarked) [Example 32, (4-Cyclobutyl-piperazin-1-yl)-[6-(tetrahydro-pyran-3-yl)-6-aza-spiro[2.5]oct-1-yl]-methanone], the IC50 was found to be 0.017 µM in test [1] and 15 nM in test [2].

Turning to `O=C(C1CC12CCN(C1CCOC1)CC2)N1CCN(C2CCC2)CC1` (centres unmarked) [Example 33, (4-Cyclobutyl-piperazin-1-yl)-[6-(tetrahydro-furan-3-yl)-6-aza-spiro[2.5]oct-1-yl]-methanone], the IC50 turned out to be 0.0055 µM in test [1] and 35.1 nM in test [2].

As for `O=C(C1CC12CCN(CCN1CCOCC1)CC2)N1CCN(C2CCC2)CC1` (centres unmarked) [Example 34, (4-Cyclobutyl-piperazin-1-yl)-[6-(2-morpholin-4-yl-ethyl)-6-aza-spiro[2.5]oct-1-yl]-methanone], the half-inhibitory concentration (IC50) turned out to be 0.0135 µM in test [1] and 24.4 nM in test [2].

`O=C(C1CC12CCN(c1ccncc1)CC2)N1CCN(C2CCCCC2)CC1` (centres unmarked) [Example 35, (4-Cyclohexyl-piperazin-1-yl)-(6-pyridin-4-yl-6-aza-spiro[2.5]oct-1-yl)-methanone]: the figures for the IC50 in test [1] and in test [2] were 0.0853 µM and 165 nM, respectively.
